# Experimental data as given in article PMC3226499, “Environmental Impact on Vascular Development Predicted by High-Throughput Screening” (Environmental Health Perspectives, 2011).
# Where two headings read alike, the source gives them in different places.
# Tests used:
# [1] = system: human umbilical vein endothelial cell; set-up: method as in Noguchi et al. 2005; conditions: ref Noguchi et al. 2005; cited from earlier work
# PAI-1 = assay: BioMAP protein readout: PAI-1 up- and down-regulation; assay type: cell-based, human; conditions: for PAI-1 up- and down-regulation LEC: lowest effective concentration
# From the text: (§1) Source data. […] Assays measured direct interactions between chemicals and molecular targets (receptors, enzymes), as well as downstream effects on reporter gene activity or cellular consequences. […] The perturbation scores are a method of aggregating assays into groups and providing a higher-level view of chemical activity across important signaling pathways.
# (§2) Identifying pVDCs. Six assay targets emerged as most relevant to embryonic blood vessel formation based on biological plausibility and prevalence in the VasculoDB literature. These targets have been previously identified, based on murine knockout models or significant associations between biomarker data and adverse pregnancy effects, as critical to proper embryonic blood vessel formation or maternal–fetal placental circulation. In order of descending influence (with corresponding references highlighting their importance to vascular development), these were down-regulation of the receptor tyrosine kinase (RTK) VEGFR2 ([Drake et al. 2007]); inhibition of the enzymatic activity of TIE2, an angiogenic RTK ([Patan 1998]); down-regulation of the proangiogenic chemokine CCL2 ([Keeley et al. 2008]); perturbation of the plasminogen-activating system (PAS) controlling extracellular matrix breakdown via up- or down-regulation of plasminogen activator inhibitor type 1 (PAI-1/SERPINE1) ([Behzadian et al. 2003]); up-regulation of the proinflammatory antiangiogenic chemokine CXCL10 ([Romagnani et al. 2001]); and perturbation of the PAS via up- or down-regulation of urokinase-type plasminogen activator receptor (uPAR/PLAUR) ([D’Alessio and Blasi 2009]).
# (§3) As predicted, thalidomide and 5HPP-33 were active across most of the pVDC signature assay targets. […] 5HPP-33 also had effects on uPAR in the endothelial cell system at 10 µM. […] Both compounds, however, fell above the mean VBS cutoff and would be classified as pVDCs based on in vitro activity for vascular targets identified by the ToxCast data and chemicals. […] Thus, our findings with reference compounds known to be antiangiogenic support the contention that VBS is an effective metric for vascular disruption.
# TIE2 = TIE2 (Homo sapiens, UniProt Q02763); assay: TIE2 cell-free biochemical assay
# Chain of TIE2 (Q02763 23-1124, species assumed): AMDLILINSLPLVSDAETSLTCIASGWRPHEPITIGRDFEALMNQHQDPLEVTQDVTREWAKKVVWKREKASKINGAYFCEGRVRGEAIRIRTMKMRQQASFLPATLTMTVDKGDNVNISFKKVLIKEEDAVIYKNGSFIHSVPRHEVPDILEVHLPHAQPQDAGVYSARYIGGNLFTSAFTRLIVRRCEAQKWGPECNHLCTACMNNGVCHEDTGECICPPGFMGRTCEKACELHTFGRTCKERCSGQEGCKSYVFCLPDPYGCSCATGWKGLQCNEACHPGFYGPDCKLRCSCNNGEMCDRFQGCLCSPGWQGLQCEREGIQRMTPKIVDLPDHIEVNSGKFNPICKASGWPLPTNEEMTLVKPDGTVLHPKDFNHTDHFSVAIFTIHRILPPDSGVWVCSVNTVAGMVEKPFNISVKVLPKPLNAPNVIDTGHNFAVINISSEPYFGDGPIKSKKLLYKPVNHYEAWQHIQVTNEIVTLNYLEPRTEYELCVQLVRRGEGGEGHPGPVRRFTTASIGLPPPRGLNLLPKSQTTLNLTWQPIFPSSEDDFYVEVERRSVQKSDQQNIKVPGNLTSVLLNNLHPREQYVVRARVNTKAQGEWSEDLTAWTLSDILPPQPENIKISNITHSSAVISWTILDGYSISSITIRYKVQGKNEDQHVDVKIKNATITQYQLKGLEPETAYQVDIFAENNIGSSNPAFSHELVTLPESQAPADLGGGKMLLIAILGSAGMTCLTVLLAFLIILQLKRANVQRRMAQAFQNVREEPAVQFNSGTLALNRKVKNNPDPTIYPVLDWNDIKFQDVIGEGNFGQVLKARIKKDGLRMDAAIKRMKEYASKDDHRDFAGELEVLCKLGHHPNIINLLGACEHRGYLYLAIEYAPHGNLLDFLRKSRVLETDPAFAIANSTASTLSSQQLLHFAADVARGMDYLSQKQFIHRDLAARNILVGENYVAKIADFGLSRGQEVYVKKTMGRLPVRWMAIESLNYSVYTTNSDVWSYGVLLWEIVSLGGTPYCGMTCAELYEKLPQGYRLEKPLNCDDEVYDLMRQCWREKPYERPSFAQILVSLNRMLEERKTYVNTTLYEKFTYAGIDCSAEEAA
# From the text: (§5) The chemical library was run against these assays, as was a repeat of the TIE2 assay from the original data series (Table 2).
# uPAR = assay: BioMAP protein readout: uPAR up- and down-regulation; assay type: cell-based, human; conditions: for uPAR up- and down-regulation LEC: lowest effective concentration
# From the text: as §1, §2, §3
# VEGFR2 [2] = assay: BioMAP protein readout: VEGFR2 down-regulation; assay type: cell-based, human; conditions: lowest effective concentration
# From the text: as §1
# (§4) Identifying pVDCs. Six assay targets emerged as most relevant to embryonic blood vessel formation based on biological plausibility and prevalence in the VasculoDB literature. These targets have been previously identified, based on murine knockout models or significant associations between biomarker data and adverse pregnancy effects, as critical to proper embryonic blood vessel formation or maternal–fetal placental circulation. […]
# [3] = system: six prioritized vascular targets (VEGFR2, TIE2, CCL2, PAI-1, CXCL10, uPAR); assay: Vascular bioactivity score (VBS): weighted sum of activity across 23 ToxCast assays; set-up: species or system human; conditions: for predicted vascular disruption from VBS rank: among all 311 compounds tested
# CXCL10 = assay: BioMAP protein readout: CXCL10 up-regulation; assay type: cell-based, human
# From the text: as §1, §4
# CCL2 = assay: BioMAP protein readout: CCL2 down-regulation; assay type: cell-based, human
# From the text: as §1, §2, §3
# rat [4] = conditions: cited from earlier work
# rat/rabbit = conditions: in vivo; cited from earlier work
# rat [5] = conditions: in vivo; cited from earlier work
# various species = conditions: cited from earlier work
# mouse = conditions: cited from earlier work
# VEGFR1 = VEGFR1 (Homo sapiens, UniProt P17948); assay: VEGFR1 biochemical assay; conditions: read-out: VEGFR1 AC50
# From the text: as §5
# PTEN = PTEN (Homo sapiens, UniProt P60484); assay: PTEN biochemical assay; conditions: read-out: PTEN AC50
# Chain of PTEN (P60484 whole entry, species assumed): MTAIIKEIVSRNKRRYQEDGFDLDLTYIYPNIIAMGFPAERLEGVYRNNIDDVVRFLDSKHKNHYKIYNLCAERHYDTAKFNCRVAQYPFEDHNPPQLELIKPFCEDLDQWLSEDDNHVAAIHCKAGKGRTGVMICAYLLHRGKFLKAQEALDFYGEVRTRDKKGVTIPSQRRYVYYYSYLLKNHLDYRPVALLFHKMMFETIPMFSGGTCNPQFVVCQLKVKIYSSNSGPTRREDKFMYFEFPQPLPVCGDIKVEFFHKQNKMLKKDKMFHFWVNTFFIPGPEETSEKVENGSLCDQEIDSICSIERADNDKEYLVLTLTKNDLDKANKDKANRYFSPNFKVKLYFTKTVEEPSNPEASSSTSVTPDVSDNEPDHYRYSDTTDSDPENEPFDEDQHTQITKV
# EphB2 = molecular target: T1, EphB2 (Homo sapiens, UniProt P29323); assay: EphB2 biochemical assay; conditions: read-out: EphB2 AC50
# T1 sequence (P29323 569-986 isoform P29323-2 limits assumed): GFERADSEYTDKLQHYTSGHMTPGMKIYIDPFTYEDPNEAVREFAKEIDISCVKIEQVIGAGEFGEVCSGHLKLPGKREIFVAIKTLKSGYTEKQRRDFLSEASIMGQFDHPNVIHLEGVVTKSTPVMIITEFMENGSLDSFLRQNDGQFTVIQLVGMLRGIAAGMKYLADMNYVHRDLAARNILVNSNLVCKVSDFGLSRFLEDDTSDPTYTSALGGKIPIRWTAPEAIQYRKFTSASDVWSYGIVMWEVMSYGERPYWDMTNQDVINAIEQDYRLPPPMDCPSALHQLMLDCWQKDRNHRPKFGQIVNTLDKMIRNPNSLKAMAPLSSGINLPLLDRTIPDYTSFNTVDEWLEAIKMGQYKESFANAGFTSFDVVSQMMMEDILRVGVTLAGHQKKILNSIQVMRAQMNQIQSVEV
# VEGFR3 = VEGFR3 (Homo sapiens, UniProt P35916); assay: VEGFR3 biochemical assay; conditions: read-out: VEGFR3 AC50
# Chain of VEGFR3 (P35916 25-1363, species assumed): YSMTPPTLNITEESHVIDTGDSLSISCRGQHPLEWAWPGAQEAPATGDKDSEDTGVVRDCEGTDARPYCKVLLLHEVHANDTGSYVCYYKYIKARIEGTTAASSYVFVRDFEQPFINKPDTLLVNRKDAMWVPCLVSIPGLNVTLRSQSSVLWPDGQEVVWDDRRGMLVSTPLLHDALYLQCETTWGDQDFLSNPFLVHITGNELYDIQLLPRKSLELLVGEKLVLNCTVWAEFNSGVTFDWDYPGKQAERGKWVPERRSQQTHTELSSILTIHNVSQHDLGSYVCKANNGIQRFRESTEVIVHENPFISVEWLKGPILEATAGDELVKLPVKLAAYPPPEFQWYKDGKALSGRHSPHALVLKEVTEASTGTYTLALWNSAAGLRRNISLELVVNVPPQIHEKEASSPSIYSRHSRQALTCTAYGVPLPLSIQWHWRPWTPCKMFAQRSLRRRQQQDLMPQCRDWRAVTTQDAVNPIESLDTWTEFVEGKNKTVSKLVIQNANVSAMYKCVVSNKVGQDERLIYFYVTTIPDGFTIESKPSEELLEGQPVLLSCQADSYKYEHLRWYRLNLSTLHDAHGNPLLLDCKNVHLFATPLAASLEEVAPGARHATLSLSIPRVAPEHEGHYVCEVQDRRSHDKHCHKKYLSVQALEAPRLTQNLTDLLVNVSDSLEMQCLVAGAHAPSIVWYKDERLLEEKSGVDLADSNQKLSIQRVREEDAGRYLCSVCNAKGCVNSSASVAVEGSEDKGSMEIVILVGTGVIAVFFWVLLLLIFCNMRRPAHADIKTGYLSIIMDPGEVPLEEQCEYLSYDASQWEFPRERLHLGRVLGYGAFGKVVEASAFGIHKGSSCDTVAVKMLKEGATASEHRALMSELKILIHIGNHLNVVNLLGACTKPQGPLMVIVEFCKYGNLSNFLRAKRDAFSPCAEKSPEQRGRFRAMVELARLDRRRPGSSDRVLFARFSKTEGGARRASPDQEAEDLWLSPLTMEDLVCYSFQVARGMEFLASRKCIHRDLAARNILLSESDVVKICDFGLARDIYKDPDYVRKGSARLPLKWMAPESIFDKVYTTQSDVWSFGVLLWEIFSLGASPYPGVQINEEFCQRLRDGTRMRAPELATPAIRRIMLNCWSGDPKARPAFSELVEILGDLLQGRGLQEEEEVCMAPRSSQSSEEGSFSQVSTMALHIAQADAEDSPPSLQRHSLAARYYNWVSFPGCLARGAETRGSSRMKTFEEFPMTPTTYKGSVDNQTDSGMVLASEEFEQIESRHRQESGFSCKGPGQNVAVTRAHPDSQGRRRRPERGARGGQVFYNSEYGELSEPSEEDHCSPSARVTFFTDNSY
# VEGFR2 [6] = molecular target: VEGFR2 (Homo sapiens, UniProt P35968); assay: VEGFR2 biochemical assay; conditions: read-out: VEGFR2 AC50; biochemical
# PI3Ka = PI3Ka (Homo sapiens, UniProt P42336); assay: PI3Ka biochemical assay
# Chain of PI3Ka (P42336 whole entry): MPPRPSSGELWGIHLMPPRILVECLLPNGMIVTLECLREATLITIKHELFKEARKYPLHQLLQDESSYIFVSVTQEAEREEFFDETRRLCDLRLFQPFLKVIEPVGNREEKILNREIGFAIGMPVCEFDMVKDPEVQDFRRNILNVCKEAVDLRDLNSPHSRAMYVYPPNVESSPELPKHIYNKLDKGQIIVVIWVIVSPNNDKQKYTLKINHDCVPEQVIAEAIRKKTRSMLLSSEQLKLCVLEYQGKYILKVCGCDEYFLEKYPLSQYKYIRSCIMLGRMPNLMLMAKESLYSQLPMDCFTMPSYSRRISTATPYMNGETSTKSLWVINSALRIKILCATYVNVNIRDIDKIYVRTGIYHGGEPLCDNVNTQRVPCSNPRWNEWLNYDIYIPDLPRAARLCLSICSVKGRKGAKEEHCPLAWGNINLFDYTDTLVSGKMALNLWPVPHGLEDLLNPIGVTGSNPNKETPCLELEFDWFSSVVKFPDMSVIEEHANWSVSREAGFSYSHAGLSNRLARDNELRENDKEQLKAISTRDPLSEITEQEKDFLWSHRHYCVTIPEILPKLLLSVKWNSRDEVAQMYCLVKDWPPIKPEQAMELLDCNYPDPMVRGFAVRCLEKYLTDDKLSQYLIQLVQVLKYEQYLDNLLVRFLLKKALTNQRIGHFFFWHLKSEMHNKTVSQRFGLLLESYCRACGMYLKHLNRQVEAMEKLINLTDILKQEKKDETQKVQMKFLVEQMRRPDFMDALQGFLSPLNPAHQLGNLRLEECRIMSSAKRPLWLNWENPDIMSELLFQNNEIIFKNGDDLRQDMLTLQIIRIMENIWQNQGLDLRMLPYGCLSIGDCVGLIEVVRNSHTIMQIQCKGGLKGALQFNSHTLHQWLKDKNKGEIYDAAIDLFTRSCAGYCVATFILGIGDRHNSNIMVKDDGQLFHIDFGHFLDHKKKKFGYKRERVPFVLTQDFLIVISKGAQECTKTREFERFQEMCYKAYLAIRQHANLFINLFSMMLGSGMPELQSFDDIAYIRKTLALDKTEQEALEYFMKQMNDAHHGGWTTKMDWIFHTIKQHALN
# Chain of PI3Ka (P27986 whole entry partner): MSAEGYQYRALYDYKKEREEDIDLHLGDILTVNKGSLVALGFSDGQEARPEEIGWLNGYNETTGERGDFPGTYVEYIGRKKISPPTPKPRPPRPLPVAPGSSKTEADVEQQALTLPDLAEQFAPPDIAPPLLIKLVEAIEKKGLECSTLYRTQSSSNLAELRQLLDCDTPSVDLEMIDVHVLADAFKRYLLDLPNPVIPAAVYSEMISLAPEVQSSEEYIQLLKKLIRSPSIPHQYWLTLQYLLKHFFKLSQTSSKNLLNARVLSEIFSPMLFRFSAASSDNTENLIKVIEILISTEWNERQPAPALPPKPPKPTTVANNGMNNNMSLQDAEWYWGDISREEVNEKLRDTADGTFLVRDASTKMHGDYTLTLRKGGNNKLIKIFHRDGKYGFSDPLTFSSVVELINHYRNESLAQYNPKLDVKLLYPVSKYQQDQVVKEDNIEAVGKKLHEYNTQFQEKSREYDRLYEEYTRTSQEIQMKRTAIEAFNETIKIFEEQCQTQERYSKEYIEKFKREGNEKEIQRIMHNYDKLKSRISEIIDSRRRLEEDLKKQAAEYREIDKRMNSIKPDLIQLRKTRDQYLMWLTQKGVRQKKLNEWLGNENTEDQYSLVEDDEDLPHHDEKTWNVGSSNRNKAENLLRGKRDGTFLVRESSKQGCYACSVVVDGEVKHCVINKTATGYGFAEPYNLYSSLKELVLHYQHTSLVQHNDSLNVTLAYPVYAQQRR
# [7] = system: placental vascular remodeling; conditions: rats; correlated with decreased expression of TIE2 mRNA; ref Ishimura et al. 2009; cited from earlier work
# murine pregnancy = conditions: administered early or late in murine pregnancy, respectively; ref Rutland et al. 2005; cited from earlier work
# [8] = system: VEGF expression and VEGFR2 phosphorylation; set-up: method as in Joussen et al. 2001; Satchi-Fainaro et al. 2005; conditions: ocular vasculature; ref Joussen et al. 2001; Satchi-Fainaro et al. 2005; cited from earlier work
# [9] = summed activity across 23 assays, 6 assay targets, reference antiangiogenic compounds
# [10] = coculture of peripheral blood mononuclear cells and endothelial cells
# [11] = ToxRefDB end points, ref U.S. EPA 2010b
# [12] = species and reference printed with each result
# [13] = read-out: TIE2 AC50, repeat of the TIE2 assay from the original data series
compound,measurement,setting,value
"CC(C)c1cccc(C(C)C)c1N1C(=O)c2ccc(O)cc2C1=O [5HPP-33, 5-hydroxy-2-(2,6-diisopropylphenyl)-1H-isoindole-1,3-dione]",inhibition of tube formation,[1],~ 60%
same,PAI-1 down-regulation LEC,PAI-1; both fibroblasts and bronchial epithelial cells,20 µM
same,PAI-1 up- and down-regulation LEC,PAI-1,20 µM
same,AC50,TIE2,> 50 µM
same,AC50 in the TIE2 assay (in words),TIE2,Neither compound affected the CXCL10 signal assay or produced an AC50 in the TIE2 assay
same,"uPAR up-regulation, effective concentration",uPAR; bronchial epithelial cells,1.25 µM
same,"effects on uPAR, effective concentration",uPAR; endothelial cell system,10 µM
same,uPAR up- and down-regulation LEC,uPAR,1.25 µM
same,VEGFR2 down-regulation LEC,VEGFR2 [2],20 µM
same,predicted vascular disruption from VBS rank,[3],second highest VBS
same,VBS,[3]; [9],6.61
same,effect on CXCL10 signal assay,CXCL10,Neither compound affected
same,CCL2 down-regulation LEC,CCL2; [10],0.625 µM
same,CCL2 down-regulation LEC,CCL2; lowest effective concentration,0.625 µM
CC(C)N1C(=O)c2ccccc2NS1(=O)=O [Bentazone],RAT Multigenerational,rat [4]; [11],Kidney; Liver
N#Cc1nn(-c2c(Cl)cc(C(F)(F)F)cc2Cl)c(N)c1[S+]([O-])C(F)(F)F (stereo not shown) [Fipronil],RAT/RABBIT Developmental,rat/rabbit,No effe ct recorded
same,RAT Chronic,rat [5],"KidneyNephropath y; Kidney_ AnyLesion; ThyroidGland_ AnyLesion, PreneoplasticL esion, Neoplasti cLesion; ThyroidProliferativeLesions; ThyroidTumors; Tumorigen"
same,RAT Multigenerational,"rat [4]; rat, in vivo",Epididymis; Fertili ty; LitterSize; LiveBir thPND1; Liver; Mating; Ovary; Thyroid; ViabilityPND4
same,VTKB Results (peer-reviewed in vivo studies),various species; in vivo,Developmental Neurotoxi city: Zebrafish (Stehr e t al. 2006)
same,MOUSE Chronic,"mouse; mouse, in vivo","LiverHypertrophy; LiverNec rosis; LiverProli ferativeLes ions; Liver_ AnyLes ion, PreneoplasticL esion"
C=CCOC(Cn1ccnc1)c1ccc(Cl)cc1Cl (stereo not shown) [Imazalil],VTKB Results (peer-reviewed in vivo studies),various species; [12],mammalian developmental toxicity
S=C([S-])NCCNC(=S)[S-].[Mn+2] [Maneb],AC50,TIE2; [13],8.08 µM
same,AC50,VEGFR1,4.1 µM
same,VBS,[3]; ToxCast chemicals of Table 2,4.69
same,AC50,PTEN,0.9 µM
same,AC50,EphB2,23 µM
same,AC50,VEGFR3,12 µM
same,AC50,VEGFR2 [6],31 µM
O=S(=O)(O)C(F)(F)C(F)(F)C(F)(F)C(F)(F)C(F)(F)C(F)(F)C(F)(F)C(F)(F)F [Perfluorooctanesulfonic acid],PI3Ka AC50,PI3Ka,6.5 µM
same,AC50,TIE2; [13],4.43 µM
same,AC50,VEGFR1,8.2 µM
same,VBS,[3]; ToxCast chemicals of Table 2,3.48
same,AC50,PTEN,17 µM
same,AC50,VEGFR3,8 µM
same,AC50,VEGFR2 [6],50 µM
O=C(O)C(F)(F)C(F)(F)C(F)(F)C(F)(F)C(F)(F)C(F)(F)C(F)(F)F [Perfluorooctanoic acid],AC50,TIE2,31.9 µM
same,VBS,[3]; ToxCast chemicals of Table 2,3.04
same,VTKB Results (peer-reviewed in vivo studies),various species; [12],mammalian developmental toxicity
"Clc1cc2c(cc1Cl)Oc1cc(Cl)c(Cl)cc1O2 [TCDD, 2,3,7,8-tetrachlorodibenzo-p-dioxin]",placental vascular remodeling,[7],suppressed
"CO[C@@H]1[C@H](OC(=O)NC(=O)CCl)CC[C@]2(CO2)[C@H]1[C@@]1(C)O[C@@H]1CC=C(C)C [TNP-470, O-[chloroacetyl-carbamoyl]fumagillol]",pregnancy outcome,murine pregnancy,spontaneous resorption and intrauterine growth restriction
same,effect on VEGF expression and VEGFR2 phosphorylation,[8],significant decrease
CCc1ccc(C(=O)NN(C(=O)c2cc(C)cc(C)c2)C(C)(C)C)cc1 [Tebufenozide],MOUSE Chronic,mouse; [11],Spleen_ AnyLesion
O=C1CCC(N2C(=O)c3ccccc3C2=O)C(=O)N1 (stereo not shown) [Thalidomide],inhibition of tube formation,[1],~ 30%
same,"PAI-1 up-regulation, effective concentration",PAI-1; fibroblasts,40 µM
same,PAI-1 up- and down-regulation LEC,PAI-1,40 µM
same,AC50,TIE2,> 50 µM
same,AC50 in the TIE2 assay (in words),TIE2,Neither compound affected the CXCL10 signal assay or produced an AC50 in the TIE2 assay
same,"uPAR up-regulation, effective concentration",uPAR; endothelial cells,2.5 µM
same,uPAR up- and down-regulation LEC,uPAR,2.5 µM
same,predicted vascular disruption from VBS rank,[3],moderate vascular disruptor
same,VBS,[3]; [9],1.76
same,effect on CXCL10 signal assay,CXCL10,Neither compound affected
same,CCL2 down-regulation LEC,CCL2; [10],0.625 µM
same,CCL2 down-regulation LEC,CCL2; lowest effective concentration,0.625 µM
CCC(C)(NC(=O)c1cc(Cl)c(C)c(Cl)c1)C(=O)CCl (stereo not shown) [Zoxamide],RAT/RABBIT Developmental,rat/rabbit,No effe ct recorded
same,RAT Chronic,rat [5],No effe ct re corded
same,RAT Multigenerational,"rat [4]; rat, in vivo",No effe ct recorded
same,MOUSE Chronic,"mouse; mouse, in vivo","LungTumors; Lung_ AnyLesion, PreneoplasticL esion, Neoplasti cLesion; Tumorigen"
Mancozeb,PI3Ka AC50,PI3Ka,20 µM
same,AC50,TIE2; [13],10.4 µM
same,AC50,VEGFR1,19 µM
same,VBS,[3]; ToxCast chemicals of Table 2,3.00
same,AC50,PTEN,0.23 µM
same,AC50,EphB2,21 µM
same,AC50,VEGFR3,1.3 µM
same,AC50,VEGFR2 [6],5.9 µM
Metiram-zinc,PI3Ka AC50,PI3Ka,29 µM
same,AC50,TIE2; [13],15 µM
same,AC50,VEGFR1,6.6 µM
same,VBS,[3]; ToxCast chemicals of Table 2,4.35
same,AC50,PTEN,12 µM
same,AC50,VEGFR3,22 µM
same,AC50,VEGFR2 [6],41 µM
